According to PubChem BioAssay AID1259407 (Chemical Carcinogenesis Research Information System (CCRIS), 2018):
Active and inactive are the calls of the source. The rule behind the calls is not given here.

System: CCRIS mutagenicity, Ames/micronucleus/aberration tests
Experiment: CCRIS mutagenicity studies

SMILES: C/C=C/C=C/C=O
- mutagenic call (Test System: AMES SALMONELLA TYPHIMURIUM, Strain/Indicator: TA98, Metabolic Activation: HAMSTER LIVER S-9, AROCLOR 1254 (30%), Method: PREINCUBATION): inactive; negative
- mutagenic call (Test System: AMES SALMONELLA TYPHIMURIUM, Strain/Indicator: TA98, Metabolic Activation: HAMSTER, LIVER, S-9, AROCLOR 1254, Method: STANDARD PLATE): inactive; negative
- mutagenic call (Test System: AMES SALMONELLA TYPHIMURIUM, Strain/Indicator: TA98, Metabolic Activation: NONE, Method: PREINCUBATION): inactive; negative
- mutagenic call (Test System: AMES SALMONELLA TYPHIMURIUM, Strain/Indicator: TA98, Metabolic Activation: NONE, Method: STANDARD PLATE): inactive; negative
- mutagenic call (Test System: AMES SALMONELLA TYPHIMURIUM, Strain/Indicator: TA98, Metabolic Activation: RAT LIVER S-9, AROCLOR 1254 (30%), Method: PREINCUBATION): inactive; negative
- mutagenic call (Test System: AMES SALMONELLA TYPHIMURIUM, Strain/Indicator: TA98, Metabolic Activation: RAT, LIVER, S-9, AROCLOR 1254, Method: STANDARD PLATE): inactive; negative
- mutagenic call (Test System: AMES SALMONELLA TYPHIMURIUM, Strain/Indicator: TA100, Metabolic Activation: HAMSTER LIVER S-9, AROCLOR 1254 (5%), Method: PREINCUBATION): active; positive
- mutagenic call (Test System: AMES SALMONELLA TYPHIMURIUM, Strain/Indicator: TA100, Metabolic Activation: HAMSTER LIVER S-9, AROCLOR 1254 (10%), Method: PREINCUBATION): active; positive
- mutagenic call (Test System: AMES SALMONELLA TYPHIMURIUM, Strain/Indicator: TA100, Metabolic Activation: HAMSTER, LIVER, S-9, AROCLOR 1254, Method: STANDARD PLATE): inactive; negative
- mutagenic call (Test System: AMES SALMONELLA TYPHIMURIUM, Strain/Indicator: TA100, Metabolic Activation: NONE, Method: PREINCUBATION (THREEFOLD CELL DENSITY)): active; positive
- mutagenic call (Test System: AMES SALMONELLA TYPHIMURIUM, Strain/Indicator: TA100, Metabolic Activation: NONE, Method: STANDARD PLATE): inactive; negative
- mutagenic call (Test System: AMES SALMONELLA TYPHIMURIUM, Strain/Indicator: TA100, Metabolic Activation: RAT LIVER S-9, AROCLOR 1254 (5%), Method: PREINCUBATION): active; positive
- mutagenic call (Test System: AMES SALMONELLA TYPHIMURIUM, Strain/Indicator: TA100, Metabolic Activation: RAT LIVER S-9, AROCLOR 1254 (10%), Method: PREINCUBATION): active; positive
- mutagenic call (Test System: AMES SALMONELLA TYPHIMURIUM, Strain/Indicator: TA100, Metabolic Activation: RAT, LIVER, S-9, AROCLOR 1254, Method: PREINCUBATION): active; positive
- mutagenic call (Test System: AMES SALMONELLA TYPHIMURIUM, Strain/Indicator: TA100, Metabolic Activation: RAT, LIVER, S-9, AROCLOR 1254, Method: PREINCUBATION (THREEFOLD CELL DENSITY)): active; positive
- mutagenic call (Test System: AMES SALMONELLA TYPHIMURIUM, Strain/Indicator: TA100, Metabolic Activation: RAT, LIVER, S-9, AROCLOR 1254, Method: STANDARD PLATE): inactive; negative
- mutagenic call (Test System: AMES SALMONELLA TYPHIMURIUM, Strain/Indicator: TA104, Metabolic Activation: NONE, Method: PREINCUBATION): active; positive
- mutagenic call (Test System: AMES SALMONELLA TYPHIMURIUM, Strain/Indicator: TA1535, Metabolic Activation: HAMSTER LIVER S-9, AROCLOR 1254 (30%), Method: PREINCUBATION): inactive; negative
- mutagenic call (Test System: AMES SALMONELLA TYPHIMURIUM, Strain/Indicator: TA1535, Metabolic Activation: HAMSTER, LIVER, S-9, AROCLOR 1254, Method: STANDARD PLATE): inactive; negative
- mutagenic call (Test System: AMES SALMONELLA TYPHIMURIUM, Strain/Indicator: TA1535, Metabolic Activation: NONE, Method: PREINCUBATION): inactive; negative
- mutagenic call (Test System: AMES SALMONELLA TYPHIMURIUM, Strain/Indicator: TA1535, Metabolic Activation: NONE, Method: STANDARD PLATE): inactive; negative
- mutagenic call (Test System: AMES SALMONELLA TYPHIMURIUM, Strain/Indicator: TA1535, Metabolic Activation: RAT LIVER S-9, AROCLOR 1254 (30%), Method: PREINCUBATION): inactive; negative
- mutagenic call (Test System: AMES SALMONELLA TYPHIMURIUM, Strain/Indicator: TA1535, Metabolic Activation: RAT, LIVER, S-9, AROCLOR 1254, Method: STANDARD PLATE): inactive; negative
- mutagenic call (Test System: AMES SALMONELLA TYPHIMURIUM, Strain/Indicator: TA1537, Metabolic Activation: HAMSTER, LIVER, S-9, AROCLOR 1254, Method: STANDARD PLATE): inactive; negative
- mutagenic call (Test System: AMES SALMONELLA TYPHIMURIUM, Strain/Indicator: TA1537, Metabolic Activation: NONE, Method: STANDARD PLATE): inactive; negative
- mutagenic call (Test System: AMES SALMONELLA TYPHIMURIUM, Strain/Indicator: TA1537, Metabolic Activation: RAT, LIVER, S-9, AROCLOR 1254, Method: STANDARD PLATE): inactive; negative
- mutagenic call (Test System: AMES SALMONELLA TYPHIMURIUM, Strain/Indicator: TA1538, Metabolic Activation: HAMSTER, LIVER, S-9, AROCLOR 1254, Method: STANDARD PLATE): inactive; negative
- mutagenic call (Test System: AMES SALMONELLA TYPHIMURIUM, Strain/Indicator: TA1538, Metabolic Activation: NONE, Method: STANDARD PLATE): inactive; negative
- mutagenic call (Test System: AMES SALMONELLA TYPHIMURIUM, Strain/Indicator: TA1538, Metabolic Activation: RAT, LIVER, S-9, AROCLOR 1254, Method: STANDARD PLATE): inactive; negative
- mutagenic call (Test System: MOUSE LYMPHOMA, Strain/Indicator: L5178Y (TK+/TK-), Metabolic Activation: NONE, Method: SUSPENSION/PLATE): active; positive. reevaluation of results: positive
- mutagenic call (Test System: MOUSE LYMPHOMA, Strain/Indicator: L5178Y (TK+/TK-), Metabolic Activation: RAT, LIVER, S-9, AROCLOR 1254, Method: SUSPENSION/PLATE): inactive; negative. reevaluation of results: negative
